The record followed here is US5763194A, “Cell separation device” (Unisearch Limited, priority 1993, dated 1998).

This series relates to CD34+ cells. Kind of series: Separation of CD34+ cells from mobilised blood using shear fractionation and pre-treatment with chymopapain. The format is cell-based, human (patient). The text has this:
Cells bound to the semi-permeable substrate of the present invention may be pre-treated with a cell-releasing agent prior to removal by shear stress. The proteolytic enzyme chymopapain has been used to assist the removal of CD34^+ cells bound to a hollow fibre apparatus of the present invention.
A mononuclear cell concentrate was collected from a patient undergoing peripheral stem cell mobilisation with cyclophosphamide and G-CSF.
A Cuprophan hollow-fibre module (binding area ^~ 500 cm^2) was derivatised with antiCD34 monoclonal antibody (clone 9e5) using the hydrazide method as described previously with the following change in protocl. Cuprophan was derivatised with 25% ethylene glycol diglycidyl ether for 2 hours at room temperature.
A total of 1.7×10^8 cells in 4 mls of phosphate buffered saline with 0.5% human Ig and 0.5% bovine serum albumin added was injected into the vertically aligned module using blind-ended filtration. Residual cells in the inlet tubing were flushed with a further 0.5 ml of buffer (blind-ended filtration). The entire loading process took less than 8 minutes. Cells were loaded at approximately 340,000 cells/cm^2.
For cell deposition within the fibre lumen, the module was rotated into the horizontal position. After 4 minutes of settling time, the module was rotated around its long axis over a 12 minute period (2 full revolutions).
For cell recovery the module was returned to the vertical position. The CD34 depleted cell population was recovered in successive 10 ml fractions by incrementing shear stress up to 100 dynes/cm (Fraction numbers 1-5).
Following this, attached cells were incubated with the proteolytic enzyme Chymopapain (DISCASE™) at 400 pKat/ml. The incubation period lasted 20 minutes. During this time released cells were collected at low shear stress (0.2 dynes/cm^2, Fraction 6). Shear fractionation was then used to further purify treated cells. 10 ml fractions were collected at shear stresses of 10, 50 and 100 dynes/cm2.

Where [1] appears, read: Fraction 6, chymopapain + 0.2 dynes/cm^2.
The mark [2] stands for this setting: Fraction 7, after chymopapain, 10 dynes/cm^2.
Where [3] appears, read: Fraction 8, after chymopapain, 50 dynes/cm^2.
[4] abbreviates: Fraction 9, after chymopapain, 100 dynes/cm^2.
[5] abbreviates: Fraction 10, after chymopapain, 100 dynes/cm^2.
[6] abbreviates: Fraction 11, after chymopapain, ~1000 dynes/cm^2 (3% dextran T2000).

For the substance “chymopapain: proteolytic enzyme Chymopapain (DISCASE™)”, the “CD34+ incidence” value under setting [1] was 93.1%; the “CD34+ incidence” value under setting [2] was 86.1%; the “CD34+ incidence” value under setting [3] turned out to be 1.91%; the “CD34+ incidence” value under setting [4] amounted to 1.19%; the “CD34+ incidence” value under setting [5] is reported as 0.54%; the “CD34+ incidence” value under setting [6] is listed as 0.31%. Moreover, the “Number of CD34+ cells” value is given as 640,000 under setting [1]; 1,770,000 under setting [2]; 45,100 under setting [3]; 12,400 under setting [4]; 3,060 under setting [5]; 2,050 under setting [6]. For the same substance, the “Total number of cells” value reads like this: under setting [1], 687,000; under setting [2], 2,060,000; under setting [3], 2,360,000; under setting [4], 1,040,000; under setting [5], 567,000; under setting [6], 660,000. The “CD34 antigen expression of released cells” value (flow cytometry (BG12-PE), chymopapain released cells) is given as 150-1600 channels. Under “fractions 6 and 7”, the “purity of fractions 6 and 7” value was “at least 90%”. Further, under “fractions 6 and 7 pooled”, the “separation yield (CD34+ cells recovered/CD34+ cells input)” value amounted to 53%.
